What was measured:
[1] = tested on: crushed spinal cord ventral white matter strip; experiment: Potassium channel blockade (4-AP) as adjunct to PEG-mediated recovery of CAP conduction; design: species or system guinea pig; settings: for Enhancement of recovered CAP by 4-AP, group data: 5 cords; for Enhancement of recovered CAP by 4-AP: reversible
Experimental: The above-described technique should be considered as a basic one, from which testing of several variations described below was performed. For example, tests were made of the response of “recovering” axons to the additional application of the fast potassium channel blocker, 4 aminopyridine (4-AP). In this trial, 5 separate cords were treated with an application of PEG as described above and compared to 5 control cords. One hour after compression, 100 pM 4-AP (in Krebs' solution) was applied for 15 minutes and then washed free with normal Krebs' solution as described above.
Spinal cords were crushed, isolated and treated with PEG as described in Example 1. Analysis was also performed in the double sucrose recording chamber as described in Example 1.

[2] = tested on: crushed spinal cord ventral white matter strip; settings: in vitro; Shi and Borgens 1999; cited from earlier work

Nc1ccncc1 [4-AP, 4-aminopyridine]
Enhancement of recovered CAP by 4-AP, group data ([1]; PEG-treated (experimental) group): about 70%
Enhancement of recovered CAP by 4-AP ([1]; PEG-treated cord, 4-AP at 1 hour post PEG application, individual test): about 70%
Enhancement of recovered CAP by 4-AP, group data ([1]; control group (crushed, no PEG)): about 40%
Enhancement of recovered CAP by 4-AP ([1]; crushed cord untreated with PEG, 100 pM 4-AP at 1 hour post injury, single test): about 40%
Magnitude of the recovered CAP after local 4-aminopyridine in PEG-repaired cord [2]: nearly doubles
